The record followed here is ChEMBL document CHEMBL2331203, “Optimization of inhibitors of the tyrosine kinase EphB4. 2. Cellular potency improvement and binding mode validation by X-ray crystallography” (J Med Chem, 2013).

The structures appear in SMILES notation.

Data set [1] is described as follows: Cytotoxicity against human RXF 393NL cells after 4 days by propidium iodide staining. To be noted: 96 h.
The nature of data set [2]: Cytotoxicity against human LXFA 983L cells after 4 days by propidium iodide staining. To be noted: 96 h.
The target of data set [3] is T1, Ephrin type-B receptor 1 (Homo sapiens) (UniProt P54762).
T1 sequence (whole entry): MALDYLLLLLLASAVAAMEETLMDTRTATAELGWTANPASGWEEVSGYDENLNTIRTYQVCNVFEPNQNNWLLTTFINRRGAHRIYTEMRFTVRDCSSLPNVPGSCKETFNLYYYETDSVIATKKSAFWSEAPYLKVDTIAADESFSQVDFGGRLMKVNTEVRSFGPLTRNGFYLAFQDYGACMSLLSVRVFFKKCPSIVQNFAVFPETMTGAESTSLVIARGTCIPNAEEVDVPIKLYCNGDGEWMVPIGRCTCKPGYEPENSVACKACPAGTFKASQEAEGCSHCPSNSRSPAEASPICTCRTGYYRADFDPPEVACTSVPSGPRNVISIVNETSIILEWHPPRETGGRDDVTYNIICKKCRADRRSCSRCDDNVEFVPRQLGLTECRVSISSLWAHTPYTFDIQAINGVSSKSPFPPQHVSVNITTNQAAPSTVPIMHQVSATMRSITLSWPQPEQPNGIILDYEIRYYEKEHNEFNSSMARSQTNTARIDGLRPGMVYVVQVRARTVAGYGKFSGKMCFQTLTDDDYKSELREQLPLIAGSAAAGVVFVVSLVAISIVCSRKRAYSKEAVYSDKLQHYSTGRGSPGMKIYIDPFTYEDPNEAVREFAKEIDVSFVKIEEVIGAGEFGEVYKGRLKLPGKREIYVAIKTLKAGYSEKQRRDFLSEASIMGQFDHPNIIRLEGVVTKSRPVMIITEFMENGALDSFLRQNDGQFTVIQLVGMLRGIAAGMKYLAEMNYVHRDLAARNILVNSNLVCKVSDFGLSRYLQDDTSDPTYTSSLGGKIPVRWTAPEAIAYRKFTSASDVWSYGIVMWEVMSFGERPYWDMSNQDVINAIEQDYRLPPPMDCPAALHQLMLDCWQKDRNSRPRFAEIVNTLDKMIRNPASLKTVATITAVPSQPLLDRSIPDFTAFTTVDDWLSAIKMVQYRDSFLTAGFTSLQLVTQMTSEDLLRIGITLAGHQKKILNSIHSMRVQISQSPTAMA
In words: Inhibition of human Eph-B1 using [gamma-33P]ATP assessed as residual activity at 3 uM after 30 mins by radiometric assay.

Data set [4] addresses T2, Ephrin type-B receptor 2 (Homo sapiens) (UniProt P29323).
T2 sequence (whole entry): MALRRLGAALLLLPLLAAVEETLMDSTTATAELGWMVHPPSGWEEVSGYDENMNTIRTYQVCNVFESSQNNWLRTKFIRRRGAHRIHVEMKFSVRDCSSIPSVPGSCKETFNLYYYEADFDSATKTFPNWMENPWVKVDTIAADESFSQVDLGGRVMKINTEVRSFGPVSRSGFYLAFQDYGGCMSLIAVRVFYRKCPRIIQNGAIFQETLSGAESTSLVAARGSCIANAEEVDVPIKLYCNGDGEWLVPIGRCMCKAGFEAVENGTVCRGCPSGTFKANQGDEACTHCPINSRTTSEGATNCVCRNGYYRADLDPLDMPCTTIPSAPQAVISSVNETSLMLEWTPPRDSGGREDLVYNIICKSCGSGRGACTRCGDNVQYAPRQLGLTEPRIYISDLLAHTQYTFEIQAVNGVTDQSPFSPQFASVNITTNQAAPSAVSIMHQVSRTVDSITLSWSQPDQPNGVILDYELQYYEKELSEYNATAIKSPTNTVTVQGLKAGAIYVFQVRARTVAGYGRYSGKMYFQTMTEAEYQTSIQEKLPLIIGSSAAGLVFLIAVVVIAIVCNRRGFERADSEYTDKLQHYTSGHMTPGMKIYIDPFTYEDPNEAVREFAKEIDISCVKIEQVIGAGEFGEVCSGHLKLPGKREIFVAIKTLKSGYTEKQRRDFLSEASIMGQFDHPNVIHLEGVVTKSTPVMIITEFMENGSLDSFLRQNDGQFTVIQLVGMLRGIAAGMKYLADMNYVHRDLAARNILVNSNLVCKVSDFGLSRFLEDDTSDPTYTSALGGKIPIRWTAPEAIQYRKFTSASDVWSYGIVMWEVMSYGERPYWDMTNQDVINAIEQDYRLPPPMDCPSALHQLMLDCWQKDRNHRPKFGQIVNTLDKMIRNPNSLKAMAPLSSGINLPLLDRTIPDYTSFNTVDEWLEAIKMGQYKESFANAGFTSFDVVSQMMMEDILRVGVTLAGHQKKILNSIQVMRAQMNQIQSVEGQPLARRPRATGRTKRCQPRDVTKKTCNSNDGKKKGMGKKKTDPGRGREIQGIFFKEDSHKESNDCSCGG
In words: Inhibition of human Eph-B2 using [gamma-33P]ATP assessed as residual activity at 3 uM after 30 mins by radiometric assay.

In data set [5] the target is Ephrin type-A receptor 4 (Homo sapiens) (UniProt P54764). In words: Inhibition of human Eph-A4 using [gamma-33P]ATP assessed as residual activity at 3 uM after 30 mins by radiometric assay.
In data set [6] the target is Ephrin type-A receptor 2 (Homo sapiens) (UniProt P29317). In words: Inhibition of human Eph-A2 using [gamma-33P]ATP assessed as residual activity at 3 uM after 30 mins by radiometric assay.
The target in data set [7] is Tyrosine-protein kinase CSK (Homo sapiens) (UniProt P41240). In words: Inhibition of human CSK using [gamma-33P]ATP assessed as residual activity at 3 uM after 30 mins by radiometric assay.
Data set [8] in a line: Apparent permeability from basolateral to apical side in human Caco2 cells after 2 hrs by LC-MS/MS analysis. The format is ADME, cell-based. To be noted: Caco-2. (In general: Passage across Caco-2 layers is used to estimate intestinal permeability.)
The nature of data set [9]: Apparent permeability from apical to basolateral side in human Caco2 cells after 2 hrs by LC-MS/MS analysis. The format is ADME, cell-based. To be noted: Caco-2.
A short description of data set [10]: Permeability from basolateral to apical side in human Caco2 cells assessed as compound recovery after 2 hrs by LC-MS/MS analysis. It counts as ADME, cell-based. To be noted: Caco-2, read-out: permeability.
The nature of data set [11]: Permeability from apical to basolateral side in human Caco2 cells assessed as compound recovery after 2 hrs by LC-MS/MS analysis. It counts as ADME, cell-based. To be noted: Caco-2, read-out: permeability.

Sequence of Ephrin type-A receptor 4 (Homo sapiens) (P54764 whole entry): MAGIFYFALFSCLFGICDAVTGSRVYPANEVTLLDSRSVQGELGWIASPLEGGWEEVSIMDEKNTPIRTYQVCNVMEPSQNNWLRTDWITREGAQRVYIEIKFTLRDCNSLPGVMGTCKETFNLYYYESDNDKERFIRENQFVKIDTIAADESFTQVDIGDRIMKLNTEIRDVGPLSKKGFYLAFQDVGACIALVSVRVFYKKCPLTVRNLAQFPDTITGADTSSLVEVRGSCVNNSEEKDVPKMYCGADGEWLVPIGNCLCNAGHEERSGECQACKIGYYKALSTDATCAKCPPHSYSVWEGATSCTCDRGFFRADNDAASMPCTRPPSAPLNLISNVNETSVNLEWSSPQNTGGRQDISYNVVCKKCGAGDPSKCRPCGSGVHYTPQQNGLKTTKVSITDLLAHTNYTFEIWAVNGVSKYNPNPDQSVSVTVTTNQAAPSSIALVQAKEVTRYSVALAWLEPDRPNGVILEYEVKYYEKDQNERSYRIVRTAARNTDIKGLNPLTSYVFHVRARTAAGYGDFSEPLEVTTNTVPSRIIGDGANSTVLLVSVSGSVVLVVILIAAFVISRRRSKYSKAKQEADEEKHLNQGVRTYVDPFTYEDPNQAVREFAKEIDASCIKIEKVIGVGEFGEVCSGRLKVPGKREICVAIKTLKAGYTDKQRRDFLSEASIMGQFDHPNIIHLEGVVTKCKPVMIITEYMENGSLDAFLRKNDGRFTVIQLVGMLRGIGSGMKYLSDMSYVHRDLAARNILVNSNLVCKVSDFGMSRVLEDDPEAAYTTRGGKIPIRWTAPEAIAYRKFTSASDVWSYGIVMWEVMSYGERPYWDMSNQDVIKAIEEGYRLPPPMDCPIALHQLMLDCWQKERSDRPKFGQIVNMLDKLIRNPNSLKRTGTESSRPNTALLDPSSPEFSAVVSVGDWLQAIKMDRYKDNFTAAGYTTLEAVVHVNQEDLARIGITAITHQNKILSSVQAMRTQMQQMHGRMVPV
Sequence of Ephrin type-A receptor 2 (Homo sapiens) (P29317 whole entry): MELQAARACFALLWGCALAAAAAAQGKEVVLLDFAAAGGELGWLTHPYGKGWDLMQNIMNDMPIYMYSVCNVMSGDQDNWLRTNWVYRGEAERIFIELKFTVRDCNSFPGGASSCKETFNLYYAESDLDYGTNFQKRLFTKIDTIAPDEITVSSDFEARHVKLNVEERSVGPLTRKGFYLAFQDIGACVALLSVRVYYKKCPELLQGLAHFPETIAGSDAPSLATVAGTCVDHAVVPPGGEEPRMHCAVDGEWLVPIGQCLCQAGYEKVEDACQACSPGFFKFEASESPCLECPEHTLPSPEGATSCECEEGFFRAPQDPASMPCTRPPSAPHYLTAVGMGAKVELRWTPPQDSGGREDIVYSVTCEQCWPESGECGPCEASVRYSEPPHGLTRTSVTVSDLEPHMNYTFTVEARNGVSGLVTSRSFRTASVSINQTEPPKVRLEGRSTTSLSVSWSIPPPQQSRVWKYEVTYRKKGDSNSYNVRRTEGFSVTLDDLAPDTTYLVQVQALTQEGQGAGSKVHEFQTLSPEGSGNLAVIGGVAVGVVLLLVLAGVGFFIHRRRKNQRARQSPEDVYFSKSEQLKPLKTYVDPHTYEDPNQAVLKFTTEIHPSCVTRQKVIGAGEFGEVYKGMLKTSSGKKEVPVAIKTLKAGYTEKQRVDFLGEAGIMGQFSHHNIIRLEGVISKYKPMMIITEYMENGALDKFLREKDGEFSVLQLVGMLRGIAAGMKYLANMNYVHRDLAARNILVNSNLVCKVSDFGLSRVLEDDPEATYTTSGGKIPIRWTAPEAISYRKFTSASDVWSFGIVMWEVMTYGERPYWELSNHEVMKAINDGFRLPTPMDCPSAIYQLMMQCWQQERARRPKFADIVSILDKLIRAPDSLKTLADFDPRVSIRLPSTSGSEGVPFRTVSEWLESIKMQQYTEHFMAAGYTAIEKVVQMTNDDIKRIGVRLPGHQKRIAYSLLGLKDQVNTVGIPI
Sequence of Tyrosine-protein kinase CSK (Homo sapiens) (P41240 2-450 limits assumed): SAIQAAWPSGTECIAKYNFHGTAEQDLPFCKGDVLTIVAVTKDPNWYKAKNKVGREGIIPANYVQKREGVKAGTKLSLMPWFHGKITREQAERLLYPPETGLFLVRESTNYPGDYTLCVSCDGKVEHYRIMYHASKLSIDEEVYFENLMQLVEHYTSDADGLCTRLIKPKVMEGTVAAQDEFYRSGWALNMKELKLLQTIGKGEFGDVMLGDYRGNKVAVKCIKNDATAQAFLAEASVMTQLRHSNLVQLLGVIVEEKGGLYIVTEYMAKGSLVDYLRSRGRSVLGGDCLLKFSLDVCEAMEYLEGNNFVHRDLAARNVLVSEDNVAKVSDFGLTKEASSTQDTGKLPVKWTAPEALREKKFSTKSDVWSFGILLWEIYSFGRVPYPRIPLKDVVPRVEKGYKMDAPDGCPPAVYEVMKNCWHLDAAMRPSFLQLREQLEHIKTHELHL

The term IC50 denotes the concentration needed to halve the response being measured. A higher IC50 goes with lower potency. Usually Papp B→A stands for how fast a substance crosses the layer from the basolateral side. One may read the Papp A→B as the apparent permeability from the apical to the basolateral side of a cell layer. As to `CCCCn1c(-c2ccccc2C)cn2c3c(=O)[nH]c(=O)n(C)c3nc12`, the IC50 in data set [1] was determined as 7.6 µM; in data set [2], 5.45 µM. Further, the Activity in data set [3] was 10%; in data set [4], 8%; in [5], 5%; in data set [6], 6%; in [7] it was 57%. In addition, in data set [8], the Papp B→A at 2 h amounted to 28.1 ×10⁻⁶ cm/s. In data set [9], the Papp A→B at 2 h was determined as 42.7 ×10⁻⁶ cm/s. The recovery at 2 h in data set [10] came out at 89%; in data set [11], 85%.
